This is an account of results in patent US5840699A, “Peptide derivatives” (Teikoku Hormone Mfg. Co. Ltd., priority 1995, dated 1998).

The subject of the experiment is mouse leukemia P388 cells. Description: Antitumor activity (increase in life-span) in mice transplanted with mouse leukemia P388 cells. The format is in vivo. The note with it: relative value of percent increase in life-span (ILS), dolastatin 10 ILS regarded as 1; P388 cells (10^6 per mouse) in abdominal cavity of CDF1 mice; drug intraperitoneally on first and fifth day; observed for 60 days. On the procedure: 0.1 ml (10^6 cells per mouse) each of mouse leukemia P388 cells was transplanted into the abdominal cavity of 7-weeks-old CDF1 mice. […] Then, the percent increase in life-span (ILS) was calculated from the results of observation according to the following equation. In the following equation, T designates the median number of days for which the mice of the drug-treated group survived, and C designates the median number of days for which the mice of the control group survived. [formula]
The antitumor activity of each drug is expressed as a relative value based on the antitumor activity of dolastatin 10 for which ILS is regarded as 1.

In turn, dolastatin 10 yielded an Antitumor activity of 1.
